Results on 31 compounds are retold here after patent publication US6413975B1, “Purine derivatives having phosphodiesterase iv inhibition activity” (Euro-Celtique, S.A., priority 1999, dated 2002).

Data set [1] concerns ovalbumin-sensitized guinea pigs (eosinophils in BAL). Nature of the data set: Ovalbumin sensitization and challenge in guinea pigs, differential cell counts in bronchoalveolar lavage. The following applies: 5 mg/kg ip one hour prior to ovalbumin challenge; for % Eosinophils in BAL x ± se: BAL 24 hours after aerosol exposure; for % Inhibition: eosinophils in BAL versus vehicle. The format is in vivo, guinea pig. The protocol:
(i) The effect of test compounds in a model of bronchial hyperresponsiveness (BHR) and cellular infiltration in the guinea pig induced by ovalbumin (see, for example Morley et al, Agents and Actions, Supplement, 1988, 23, 187) were studied.
(ii) Sensitization and Challenge procedure: Male Dunkin Hartley guine pigs (Charles River) (200-250 g) were injected i.p. with ovalbumin (OVA) (0.5 ml/animal; 20 μg OVA in AlOH)3 (moist gel)); this preparation produced an injectable stable suspension containing excess Al(OH)3. Sham animals were injected with 0.5 ml Al(OH)3 alone. After a period of 18-21 days animals were exposed to an aerosol of OVA (100 μg/ml) for 1 hour in an exposure chamber.
(iii) Bronchoalveloar lavage: Animals were anaesthetized, 24 hours after aerosol exposure, with urethane (25%, w/v, 7 ml/kg, i.p.) and the trachea cannulated. Bronchoalveo-lar lavage (BAL) was performed by instilling 5 ml sterile saline into the lungs via the tracheal cannula and the fluid was immediately removed. The fluid was reinjected and the procedure repeated 5 times in total. […] Total cell counts were perfomed on the resultant BAL fluid using an improved Neubauer haemocytometer. Cytospin preparations were prepared using a Shandon Cytospin 2 centrifuge. Two drops of BAL fluid were added to each cytospin cup and the samples were centrifuged for 1 min at 1300 r.p.m. Slides were fixed in acetone and stained with haemotoxylin and carbol chromotrope according to the method described by Lendrum (Lendrum 1944), differential cell counts were performed on each slide by counting 200 cells at random, the cell types were classified as neutrophils, eosinophils and mononuclear cells according to standard morphological criteria. Cells were counted blind. The results are expressed as the number of neutrophils, eosinophils and mononuclear cells per ml of BAL fluid. The remaining BAL fluid was centrifuged (10 min., 1000 g) and the resultant cells and cell free supernatants were aliquotted and frozen for later assays. Compounds were solu-bilized in either DMSO or saline administered intraperitoreally at a dose of 5 mg/kg one hour prior to ovalbumin challenge.

The next data set relates to Type IV PDE. The data set is described as follows: PDE IV inhibition: hydrolysis of [3H]-cyclic AMP by isolated Type IV PDE. The format is biochemical, bovine. The protocol: The Type IV PDE is isolated from bovine tracheal smooth muscle using a procedure similar to that previously described by Silver, P. J., Hamel, L. T., Perrone, M. H. Bentley, R. G. Bushover, C. R., Evans, D. B.: Eur. J. Pharmacol. 150:85,1988.(1). Briefly, smooth muscle from bovine trachea is minced and homogenized using a polytron in 10 volumes of an extraction buffer containinhg 10 mM Tris-acetate (pH 7.5), 2 mM magnesium chloride, 1 mM dithiothreitol and 2,000 units/ml of aprotinin. This and all subsequent procedures are performed at 0-4° C. The homogenate is sonicated and then centrifiged at 48,000×g for 30 minutes. The resulting supernatant is applied to a DEAE Trisacryl M column previously equilibrated with sodium acetate and dithiothreitol. After applications of the sample, the column is washed with sodium acetate/dithiothreitol, after which the different forms of PDE are eluted from the column using a linear Tris-HCl/NaCl gradient. Fractions containing Type IV PDE are collected, dialyzed and concentrated to 14% of the original volume. The concentrated fractions are diluted to 50% with ethylene glycol and stored at -20° C.
Enzyme activity is assessed by measuring the hydrolysis of [^3H]-cyclic AMP, as described by Thompson, W. J., Teraski, W. L., Epstein, P. N., Strada, S. J.: Adv. Cyclic Nucleotide Res. 10:69, 1979. The cyclic AMP concentration used in this assay is 0.2 μM, which approximates the Km value. Protein concentration is adjusted to ensure that no more than 15% of the available substrate is hydrolyzed during the incubation period.
All test compounds are dissolved in dimethyl sulfoxide (final concentration of 2.5%). This concentration of dimethyl sulfoxide inhibits enzyme activity by approximately 10%.

Where [2] appears, read: adenines, Table 4, cyclic AMP 0.2 μM, read-out: calc PDE IV IC50.
Setting [3] is: adenines, Table 7, read-out: calc PDE IV IC50.
Setting [4] is: dithioxanthines, Table 5, read-out: IC50 PDE IV.
Where [5] appears, read: thioisoguanines, Table 2, cyclic AMP 0.2 μM, read-out: Calc IC50 PDE IV.

Structures can show the parent of a compound that is named as a salt. Where two headings read alike, the source gives them in different places.

Usually % Inhibition stands for the drop in the measured response relative to a control, in per cent. As to `CCNc1ncn(CCC(C)C)c2nc(C3CC3)nc1-2.Cl` [8-cyclopropyl-6-ethylamino-3-(3-methylbutyl)-3H-purine hydrochloride], in data set [1], the “% Eosinophils in BAL x ± se” value was 16 ± 4% and the “% Inhibition” value is 52%. In the data set with Type IV PDE (setting [2]), the IC50 was 2450 nM.

A word on the melting point: it is the temperature, or range, at which the solid turns liquid. `CCNc1ncn(Cc2ccc(OC)c(OC3CCCC3)c2)c2nc(C(C)(C)OCc3ccccc3)nc1-2.Cl` [8-(1-Benzyloxy-1-methyl-ethyl)-3-(3-cyclopentyloxy-4-methoxy-benzyl)-6-ethylamino-3H-purine Hydrochloride] had a melting point of 148 to 150 °C. For the same compound, in the data set on Type IV PDE (setting [3]), the IC50 is 850 nM.

With `COc1ccc(Cn2cnc(N)c3nc(C(C)(C)OCc4ccc(F)cc4)nc2-3)cc1OC1CCCC1.Cl` [6-Amino-3-(3-cyclopentyloxy-4-methoxy-benzyl)-8-(1-(4-fluorobenzyloxy)-1-methyl-ethyl)-3H-purine hydrochloride], the melting point is 165 to 174 °C. In addition, in the data set on Type IV PDE (setting [3]), the IC50 is 34 nM.

In turn, `CCCCCCn1cnc(NCC)c2ncnc1-2` (as salt: hydrochloride) [6-Ethylamino-3-hexyl-3H-purine] yielded a melting point of 190 to 195 °C.

On to `CCNc1ncn(Cc2ccc(Cl)cc2)c2nc(C(C)C)nc1-2` [3-(4-chlorobenzyl)-6-ethylamino-8-isopropyl-3H-purine], for which the melting point lay within 215 to 217 °C. Further, in the data set with Type IV PDE (read-out: PDE IV I50), the IC50 is 1130 nM.

The compound `COc1ccc(Cn2cnc(N)c3nc(C(C)(C)OCc4ccccc4)nc2-3)cc1OC1CCCC1.Cl` [6-Amino-8-(1-benzyloxy-1-methyl-ethyl)-3-(3-cyclopentyloxy-4-methoxy-benzyl)-3H-purine Hydrochloride] returned a melting point of 201 to 203 °C. For the same compound, the IC50 in the data set on Type IV PDE (setting [3]) is 5 nM.

Consider `CCNc1ncn(Cc2ccc(OC)c(OC3CCCC3)c2)c2nc(C(C)C)nc1-2.Cl` [3-(3-Cyclopentyloxy-4-methoxybenzyl)-6-ethylamino-8-isopropyl-3H-purine Hydrochloride], for which, in data set [1], the “% Eosinophils in BAL x ± se” value was 12 ± 2% and the “% Inhibition” value stood at 64%. For the same compound, the IC50 in the data set with Type IV PDE (read-out: PDE IV I50) worked out at 320 nM.

For the compound `COc1ccc(Cn2cnc(N)c3nc(C(C)(C)OCc4ccc(F)cc4)nc2-3)cc1OC` (as salt: hydrochloride) [6-Amino-3-(3,4-dimethoxybenzyl)-8-(1-(4-fluorobenzyloxy-1-methyl-ethyl)-3H-purine Hydrochloride], the melting point fell in the range of 172 to 175 °C.

Take `CC(C)c1nc2c(N)ncn(CC3CCCC3)c-2n1` [6-amino-3-cyclopentylmethyl-8-isopropyl-3H-purine]: the IC50 with Type IV PDE (setting [3]) was 23200 nM.

For `CCNc1ncn(CC2CCCCC2)c2nc(C3CC3)nc1-2` [3-cyclohexylmethyl-8-cyclopropyl-6-ethylamino-3H-purine hydrochloride], the IC50 in the data set with Type IV PDE (setting [2]) is 3780 nM.

Take `CCn1c(=S)[nH]c(=S)c2[nH]c(C(C)C)nc21` [3-ethyl-3,7-dihydro-8-isopropyl-2,6-dithio-1H-purine-2,6-dione]: the IC50 with Type IV PDE (setting [4]) came to 4100 nM.

Regarding `COc1ccc(Cn2cnc(N)c3ncnc2-3)cc1OC1CCCC1` [6-Amino-3-(3-cyclopentyloxy-4-methoxybenzyl)-3H-purine], the IC50 with Type IV PDE (setting [3]) was 310 nM.

Turning to `CCNc1ncn(Cc2ccc(OC)c(OCC3CCN(C)CC3)c2)c2nc(C(C)C)nc1-2` [6-Ethylamino-3-[3-(1-methylpiperidin-4-yl-methoxy)-4-methoxy-benzy]-8-isopropyl-3H-purine], in the data set on Type IV PDE (setting [3]), the IC50 was 6600 nM.

On to `CCNc1nc(=S)n(CC2CCCCC2)c2nc(C3CC3)[nH]c12` [3-cyclohexylmethyl-8-cyclopropyl-3,7-dihydro-6-ethylamino-2-thio-2H-purin-2-one], for which, in the data set with Type IV PDE (setting [5]), the IC50 was 15200 nM.

Consider `COc1ccc(Cn2cnc(N)c3nc(C(C)C)nc2-3)cc1O` [6-amino-3-(3-hydroxy-4-methoxy)-benzyl)-8-isopropyl-3H-purine], for which the IC50 in the data set on Type IV PDE (setting [3]) is 15100 nM.

Regarding `CCNc1ncn(Cc2ccc(OC)c(OCCN(C)C)c2)c2nc(C(C)C)nc1-2` [6-Ethylamino-3-[3-(2,2-dimethylaminoethoxy-4-methoxy)]-8-isopropyl-3H-purine], the IC50 in the data set with Type IV PDE (setting [3]) is 8950 nM.

Regarding `CCNc1ncn(Cc2cccc(Cl)c2)c2nc(C(C)C)nc1-2` [3-(3-chlorobenzyl)-6-ethylamino-8-isopropyl-3H-purine], the IC50 in the data set with Type IV PDE (setting [3]) is 2150 nM.

As for `CCn1c(=S)nc(NC2CCCC2)c2[nH]c(C(C)C)nc21` [3-ethyl-6-cyclopentylamino-3,7-dihydro-8-isopropyl-2-thio-2H-purin-2-one], the IC50 in the data set on Type IV PDE (setting [5]) is 9400 nM.

For the compound `COc1ccc(Cn2cnc(N)c3nc(C(C)(C)OCc4ccccc4)nc2-3)cc1OC` [6-Amino-8-(1-benzyloxy-1-methyl-ethyl)-3-(34-dimethoxybenzyl)-3H-purine Hydrochloride], in the data set on Type IV PDE (setting [3]), the IC50 is 940 nM.

For the compound `CCN(C(=O)c1ccccc1)c1ncn(Cc2ccc(OC)c(OC3CCCC3)c2)c2nc(C(C)C)nc1-2` [3-(3-cyclopentyloxy-4-methoxybenzyl)-6-(N-benzoyl-N-ethylamino)-8-isopropyl-3H-purine], the IC50 in the data set with Type IV PDE (setting [3]) was 1430 nM.

Regarding `CCNc1ncn(Cc2ccc(OC)cc2)c2nc(C(C)C)nc1-2` [6-ethylamino-8-isopropyl-3-(4-methoxybenzyl)-3H-purine], the IC50 in the data set with Type IV PDE (setting [3]) was 1200 nM.

As for `CCNc1ncn(CCc2ccc(Cl)cc2)c2nc(C(C)C)nc1-2` [3-{2-(4-chlorophenyl)-ethyl]-6-ethylamino-8-isopropyl-3H-purine], the IC50 with Type IV PDE (setting [3]) is 4460 nM.

For `COc1ccc(Cn2cnc(N)c3nc(C(C)(C)O)nc2-3)cc1OC1CCCC1` [6-amino-3-[(3-cyclopentyloxy-4-methoxy)benzyl]-8-[(1-hydroxy-1-methyl)ethyl]-3H-purine], the IC50 in the data set on Type IV PDE (setting [3]) was 250 nM.

In the case of `CCn1cnc(NCc2ccccc2)c2nc(C3CCCC3)nc1-2` [3-ethyl-8-cyclopentyl-6-benzylamino-3H-purine hydrochloride], the IC50 in the data set with Type IV PDE (setting [2]) was 62400 nM.

`CCCn1c(=S)nc(NCc2ccccc2)c2[nH]c(C3CC3)nc21` [6-benzylamino-8-(cyclopropyl)-3,7-dihydro-3-propyl-2-thio-2H-purin-2-one hydrochloride]: the IC50 in the data set with Type IV PDE (setting [5]) was 33600 nM.

For the compound `CC(C)c1nc2c(NC3CCCC3)ncn(Cc3ccc(Cl)cc3)c-2n1` [3-(4-chlorobenzyl)-6-cyclopentylamino-8-isopropyl-3H-purine], the IC50 in the data set with Type IV PDE (setting [3]) was 4700 nM.

As to `C=C(C)c1nc2c(N)ncn(Cc3ccc(OC)c(OC4CCCC4)c3)c-2n1` [6-Amino-3-(3-cyclopentyloxy-4-methoxy-benzyl)-8-(1-methylethenyl)-3H-purine], the IC50 in the data set with Type IV PDE (setting [3]) is 91 nM.

For `COc1ccc(Cn2cncc3nc(C(C)(C)O)nc2-3)cc1OC1CCC(O)C1` (stereo not shown) [3-[3-(3-Hydroxy-cyclopentyloxy)-4-methoxy-benzyl]-8-(1-hydroxy-1-methyl-ethyl)-3H-purine], in the data set with Type IV PDE (setting [3]), the IC50 was 2250 nM.

As to `S=c1[nH]c(=S)n(Cc2ccccc2)c2nc[nH]c12` [3-benzyl-3,7-dihydro-2,6-dithio-1H-purine-2,6-dione], the IC50 with Type IV PDE (setting [4]) amounted to 38500 nM.

Turning to `CCNc1ncn(Cc2ccc(OC)c(OC3CCC(O)C3)c2)c2nc(C(C)(C)O)nc1-2` (stereo not shown) [6-Ethylamino-3-[3-(3-hydroxycyclopentyloxy)-4-methoxybenzyl)]-8-(1-hydroxy-1-methylethyl)-3H-purine], the IC50 in the data set on Type IV PDE (setting [3]) is 2600 nM.

On to `CCNc1ncn(Cc2ccc(Cl)cc2)c2ncnc1-2.Cl` [3-(4-chlorobenzyl)-6-ethylamino-3H-purine hydrochloride], for which the melting point lay in the range of 251 to 254 °C. In addition, the IC50 with Type IV PDE (setting [2]) was 37800 nM.
